Assay results reported in patent US8450278B2, “MUC18 targeting peptides” (Board of Regents, The University of Texas System, priority 2008, dated 2013).
“Also recorded” adds a separate entry of the source.

System: B16 melanoma cells
Assay: Phage binding assay on B16 melanoma cells pre and post co-culture with B-1 lymphocytes
Format: cell-based, mouse
Description: The inventors used a random phage library displaying the insert CX7C(C, cysteine; X, any residue) for selection of peptides binding to melanoma cells post co-culture with B-1 lymphocytes (Giordano et al., 2001). As a pre-clearing step, 10^6 B16 cells without exposure to B-1 lymphocytes were detached, washed and resuspended in RPMI containing 2% BSA plus 10^9 transducing units (TU) of unselected phage library. Cells and phage were transferred to the top of a non-miscible organic lower phase (dibutyl phthalate: cyclohexane, 9:1 [v:v]) and centrifuged at 10,000 g for 10 min. The unbound phage population remaining in the aqueous upper phase (pre-cleared library) was collected into a fresh eppendorf tube and incubated with 10^6 B16 cells isolated post co-culture with B-1 lymphocytes. Phage in the organic lower phase were recovered from the cell pellet by bacterial host infection (Pasqualini et al., 2000; Cardo-Vila et al., 2003; Marchio et al., 2004; Marchio et al., 2004; Kolonin et al., 2004; Arap et al, 2004; Hajitou et al., 2006).
For phage binding assays to B16 melanoma, 10^6 cells pre and post co-culture with B-1 lymphocytes were incubated with each specific phage clone (10^9 TU) or negative controls. Melanoma cells and phage were centrifuged through the organic phase and the cell-bound phage clones were recovered by bacterial infection (Giordano et al., 2001).

Q: For CLFMRLAWC [SEQ ID NO:1], which “phage/peptide binding to melanoma cells (in words)” value is on record?
A: marked enrichment in phage binding; also recorded: selectively bind to cancerous cells
